Laboratory results: paper PMC9402538, “Rational design of a sensitivity-enhanced tracer for discovering efficient APC–Asef inhibitors” (Nature Communications, 2022)
Where a SMILES comes first, the peptide text is derived from it. The star is where a group is joined. Bz = O=C(c1ccccc1)*

Molecular target: T1, APC (303–739) (Homo sapiens, UniProt P25054)
T1 sequence (P25054 303-739): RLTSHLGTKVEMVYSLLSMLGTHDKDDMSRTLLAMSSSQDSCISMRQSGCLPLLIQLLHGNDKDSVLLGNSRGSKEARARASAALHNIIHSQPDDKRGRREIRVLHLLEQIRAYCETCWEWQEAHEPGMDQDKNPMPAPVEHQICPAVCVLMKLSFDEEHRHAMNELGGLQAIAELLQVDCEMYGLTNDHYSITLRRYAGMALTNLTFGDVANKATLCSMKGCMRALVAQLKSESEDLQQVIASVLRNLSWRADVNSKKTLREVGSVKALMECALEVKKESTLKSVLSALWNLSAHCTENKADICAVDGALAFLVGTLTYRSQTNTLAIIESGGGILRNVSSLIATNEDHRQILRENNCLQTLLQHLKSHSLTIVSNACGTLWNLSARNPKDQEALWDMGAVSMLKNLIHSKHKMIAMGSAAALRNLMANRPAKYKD
Assay: FP competitive assay using tracer 7
Type: binding
Conditions: for IC50: Table 3 source data
Procedure, shortened: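 Peptide dilutions were first incubated 1 h at room temperature with APC (303–739) in HEPES pH 7.5 buffer containing 300 mM NaCl, EDTA and DTT. Added FITC tracer 7 (400 nM stock) displaced over a further 1.5 h before polarization reading. IC50 values came from nonlinear regression fits of triplicate data.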

CC(C)C[C@H](NC(=O)[C@H](CO)NC(=O)[C@H](CCC(=O)O)NC(=O)CNC(=O)[C@H](C)NC(=O)c1ccccc1)C(=O)N[C@@H](Cc1ccc(O)cc1)C(=O)N[C@@H](CCC(=O)O)C(N)=O [MAI-511] (Bz-AGESLYE-NH2)
inhibition at 0.0002 µM (Conc. 0.0002 μM, individual repeats, Fig3b): 1.5% | inhibition at 0.0005 µM (Conc. 0.0005 μM, individual repeats, Fig3b): 1.2% | inhibition at 0.001 µM (Conc. 0.001 μM, individual repeats, Fig3b): 1.9% | inhibition at 0.002 µM (Conc. 0.002 μM, individual repeats, Fig3b): 1.5% | inhibition at 0.0024 µM (Conc. 0.0024 μM, individual repeats, Fig3b): 1.1% | inhibition at 0.0039 µM (Conc. 0.0039 μM, individual repeats, Fig3b): 2.5% | inhibition at 0.0049 µM (Conc. 0.0049 μM, individual repeats, Fig3b): 1.1% | inhibition at 0.006 µM (Conc. 0.006 μM, individual repeats, Fig3b): 4.7% | inhibition at 0.0078 µM (Conc. 0.0078 μM, individual repeats, Fig3b): 5.3% | inhibition at 0.0098 µM (Conc. 0.0098 μM, individual repeats, Fig3b): 6.1% | inhibition at 0.012 µM (Conc. 0.012 μM, individual repeats, Fig3b): 7.9% | inhibition at 0.0156 µM (Conc. 0.0156 μM, individual repeats, Fig3b): 8.5% | inhibition at 0.0195 µM (Conc. 0.0195 μM, individual repeats, Fig3b): 11.3% | inhibition at 0.024 µM (Conc. 0.024 μM, individual repeats, Fig3b): 16.8% | inhibition at 0.0313 µM (Conc. 0.0313 μM, individual repeats, Fig3b): 22.7% | inhibition at 0.0391 µM (Conc. 0.0391 μM, individual repeats, Fig3b): 22.5% | inhibition at 0.049 µM (Conc. 0.049 μM, individual repeats, Fig3b): 31.3% | inhibition at 0.0625 µM (Conc. 0.0625 μM, individual repeats, Fig3b): 39% | inhibition at 0.0781 µM (Conc. 0.0781 μM, individual repeats, Fig3b): 39.5% | inhibition at 0.098 µM (Conc. 0.098 μM, individual repeats, Fig3b): 49% | inhibition at 0.125 µM (Conc. 0.125 μM, individual repeats, Fig3b): 56.2% | inhibition at 0.1563 µM (Conc. 0.1563 μM, individual repeats, Fig3b): 58.3% | inhibition at 0.195 µM (Conc. 0.195 μM, individual repeats, Fig3b): 67.3% | inhibition at 0.25 µM (Conc. 0.25 μM, individual repeats, Fig3b): 72.5% | inhibition at 0.3125 µM (Conc. 0.3125 μM, individual repeats, Fig3b): 72.1% | inhibition at 0.391 µM (Conc. 0.391 μM, individual repeats, Fig3b): 80.1% | inhibition at 0.5 µM (Conc. 0.5 μM, individual repeats, Fig3b): 83.2% | inhibition at 0.625 µM (Conc. 0.625 μM, individual repeats, Fig3b): 82.5% | inhibition at 0.781 µM (Conc. 0.781 μM, individual repeats, Fig3b): 86.3% | inhibition at 1 µM (Conc. 1 μM, individual repeats, Fig3b): 90.6% | inhibition at 1.25 µM (Conc. 1.25 μM, individual repeats, Fig3b): 89.5% | inhibition at 1.563 µM (Conc. 1.563 μM, individual repeats, Fig3b): 91.5% | inhibition at 2 µM (Conc. 2 μM, individual repeats, Fig3b): 95.4% | inhibition at 2.5 µM (Conc. 2.5 μM, individual repeats, Fig3b): 93.6% | inhibition at 3.125 µM (Conc. 3.125 μM, individual repeats, Fig3b): 93.5% | inhibition at 5 µM (Conc. 5 μM, individual repeats, Fig3b): 95.7% | inhibition at 6.25 µM (Conc. 6.25 μM, individual repeats, Fig3b): 94.1% | inhibition at 10 µM (Conc. 10 μM, individual repeats, Fig3b): 96.6% | inhibition at 12.5 µM (Conc. 12.5 μM, individual repeats, Fig3b): 95% | inhibition at 20 µM (Conc. 20 μM, individual repeats, Fig3b): 97.1% | inhibition at 25 µM (Conc. 25 μM, individual repeats, Fig3b): 95.6% | inhibition at 50 µM (Conc. 50 μM, individual repeats, Fig3b): 94.9% | IC50 (IC50(μM) Repeat 1, Repeat 1): 0.0848 µM | IC50 (IC50(μM) Repeat 2, Repeat 2): 0.102 µM | IC50 (IC50(μM) Repeat 3, Repeat 3): 0.108 µM | IC50 (IC50(μM) mean, mean of 3 repeats): 0.0984 µM | mean (FP signal, FigS5) (Repeat 1, Conc. 0.0024 μM): 300.7 | mean (FP signal, FigS5) (Repeat 1, Conc. 0.0049 μM): 300.5 | mean (FP signal, FigS5) (Repeat 1, Conc. 0.0098 μM): 288 | mean (FP signal, FigS5) (Repeat 1, Conc. 0.0195 μM): 274.7 | mean (FP signal, FigS5) (Repeat 1, Conc. 0.0391 μM): 246.3 | mean (FP signal, FigS5) (Repeat 1, Conc. 0.0781 μM): 203.3 | mean (FP signal, FigS5) (Repeat 1, Conc. 0.1563 μM): 155.7 | mean (FP signal, FigS5) (Repeat 1, Conc. 0.3125 μM): 120.7 | mean (FP signal, FigS5) (Repeat 1, Conc. 0.625 μM): 94.3 | mean (FP signal, FigS5) (Repeat 1, Conc. 1.25 μM): 76.7 | mean (FP signal, FigS5) (Repeat 1, Conc. 2.5 μM): 66.3 | mean (FP signal, FigS5) (Repeat 1, Conc. 5 μM): 61 | mean (FP signal, FigS5) (Repeat 1, Conc. 10 μM): 58.7 | mean (FP signal, FigS5) (Repeat 1, Conc. 20 μM): 57.3 | mean (FP signal, FigS5) (Repeat 2, Conc. 0.0002 μM): 300.7 | mean (FP signal, FigS5) (Repeat 2, Conc. 0.0005 μM): 301.3 | mean (FP signal, FigS5) (Repeat 2, Conc. 0.001 μM): 299.7 | mean (FP signal, FigS5) (Repeat 2, Conc. 0.002 μM): 300.7 | mean (FP signal, FigS5) (Repeat 2, Conc. 0.0039 μM): 298 | mean (FP signal, FigS5) (Repeat 2, Conc. 0.0078 μM): 291 | mean (FP signal, FigS5) (Repeat 2, Conc. 0.0156 μM): 283 | mean (FP signal, FigS5) (Repeat 2, Conc. 0.0313 μM): 247.3 | mean (FP signal, FigS5) (Repeat 2, Conc. 0.0625 μM): 206.3 | mean (FP signal, FigS5) (Repeat 2, Conc. 0.125 μM): 163 | mean (FP signal, FigS5) (Repeat 2, Conc. 0.25 μM): 122 | mean (FP signal, FigS5) (Repeat 2, Conc. 0.5 μM): 95.3 | mean (FP signal, FigS5) (Repeat 2, Conc. 1 μM): 76.7 | mean (FP signal, FigS5) (Repeat 2, Conc. 2 μM): 64.7 | mean (FP signal, FigS5) (Repeat 3, Conc. 0.006 μM): 301.3 | mean (FP signal, FigS5) (Repeat 3, Conc. 0.012 μM): 293 | mean (FP signal, FigS5) (Repeat 3, Conc. 0.024 μM): 270 | mean (FP signal, FigS5) (Repeat 3, Conc. 0.049 μM): 232.3 | mean (FP signal, FigS5) (Repeat 3, Conc. 0.098 μM): 186.3 | mean (FP signal, FigS5) (Repeat 3, Conc. 0.195 μM): 138.7 | mean (FP signal, FigS5) (Repeat 3, Conc. 0.391 μM): 105.3 | mean (FP signal, FigS5) (Repeat 3, Conc. 0.781 μM): 89.3 | mean (FP signal, FigS5) (Repeat 3, Conc. 1.563 μM): 75.7 | mean (FP signal, FigS5) (Repeat 3, Conc. 3.125 μM): 70.7 | mean (FP signal, FigS5) (Repeat 3, Conc. 6.25 μM): 69 | mean (FP signal, FigS5) (Repeat 3, Conc. 12.5 μM): 66.7 | mean (FP signal, FigS5) (Repeat 3, Conc. 25 μM): 65 | mean (FP signal, FigS5) (Repeat 3, Conc. 50 μM): 67
